± gives the expanded uncertainty stated by the source.
Test: refractive index (Na D-line) (dimensionless)
Conditions: 298.15 K; 101.33 kPa; Liquid; Standard Abbe refractometry

refractive index | Structure (SMILES)
1.3326 ± 0.0005 | O [water]
1.3756 ± 0.0005 | CC(C)O [propan-2-ol]
1.3591 ± 0.0005 | CCO [ethanol]
